Experimental data from patent publication US20090029992A1, “SUBSTITUTED PYRAZOLE COMPOUNDS” (priority 2007, published 2009).

How the values were obtained:
Assay type in all cases: biochemical
[1] = molecular target: T1, N-terminal His6-tagged recombinant human KDR, residues 790-end (Homo sapiens, UniProt P35968); assay: KDR kinase inhibition assay (33P-ATP filter assay)
T1 construct: recombinant human KDR, residues 790-end; His6 (N); purchased Upstate USA Inc, 706 Forest Street, Charlottesville, Va
Procedure, shortened: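 His6-tagged human KDR (residues 790-end, 5-10 mU) with 0.33 mg/mL myelin basic protein in 8 mM MOPS pH 7.0, 0.2 mM EDTA, 10 mM magnesium acetate and [γ-33P]ATP; 40 min at room temperature. Stopped with phosphoric acid, filter-bound 33P counted; inhibition relative to no-inhibitor controls.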

[2] = molecular target: T2, N-terminal GST-tagged recombinant human Flt3, residues 564-end (Homo sapiens, UniProt P36888); assay: Flt3 kinase inhibition assay (33P-ATP filter assay); settings: 40 minutes at room temperature
T2 construct: recombinant human Flt3, residues 564-end; GST (N); purchased Upstate USA Inc, 706 Forest Street, Charlottesville, Va
T2 sequence (P36888 564-993 limits assumed): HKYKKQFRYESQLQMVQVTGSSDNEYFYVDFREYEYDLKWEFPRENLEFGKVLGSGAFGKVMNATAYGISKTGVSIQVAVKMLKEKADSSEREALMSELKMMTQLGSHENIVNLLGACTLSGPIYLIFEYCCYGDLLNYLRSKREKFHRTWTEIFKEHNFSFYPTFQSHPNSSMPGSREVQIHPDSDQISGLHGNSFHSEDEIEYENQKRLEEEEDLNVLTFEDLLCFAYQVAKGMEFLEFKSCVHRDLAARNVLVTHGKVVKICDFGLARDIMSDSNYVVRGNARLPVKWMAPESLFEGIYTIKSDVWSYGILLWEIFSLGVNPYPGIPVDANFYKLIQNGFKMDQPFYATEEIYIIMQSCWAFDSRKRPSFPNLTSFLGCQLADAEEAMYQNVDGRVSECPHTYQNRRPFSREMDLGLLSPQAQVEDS
Procedure, shortened: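 Serial compound dilutions incubated 40 min at room temperature with 5-10 mU Flt3 kinase, 50 μM peptide substrate and [γ-33P]ATP/10 mM magnesium acetate, pH 7.0. Phosphoric acid stop, filter capture and scintillation counting; activity compared with uninhibited reactions.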

[3] = molecular target: T3, N-terminal His-tagged human Src (Homo sapiens, UniProt P12931); assay: Src kinase inhibition assay (33P-ATP filter assay)
T3 construct: His (N); purchased Upstate USA Inc, 706 Forest Street, Charlottesville, Va

[4] = group with IC50 greater than 100 nM

T1 sequence (P35968 790-1356 limits assumed): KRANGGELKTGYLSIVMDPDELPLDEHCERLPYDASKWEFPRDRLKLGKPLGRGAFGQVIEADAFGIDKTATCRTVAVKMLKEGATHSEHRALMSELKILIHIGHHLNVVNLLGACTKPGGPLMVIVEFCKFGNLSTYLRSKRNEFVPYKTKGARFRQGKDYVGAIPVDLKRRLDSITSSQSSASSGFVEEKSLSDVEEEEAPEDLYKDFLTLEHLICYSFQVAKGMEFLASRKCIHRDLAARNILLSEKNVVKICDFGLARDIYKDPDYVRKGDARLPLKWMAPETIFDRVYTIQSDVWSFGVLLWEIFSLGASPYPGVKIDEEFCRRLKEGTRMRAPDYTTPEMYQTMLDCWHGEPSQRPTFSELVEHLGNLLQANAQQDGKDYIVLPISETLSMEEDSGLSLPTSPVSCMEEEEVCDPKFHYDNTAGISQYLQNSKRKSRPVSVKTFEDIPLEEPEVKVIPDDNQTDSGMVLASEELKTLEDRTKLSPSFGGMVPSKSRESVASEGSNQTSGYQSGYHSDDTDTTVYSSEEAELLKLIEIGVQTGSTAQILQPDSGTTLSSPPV
T3 sequence (P12931 whole entry): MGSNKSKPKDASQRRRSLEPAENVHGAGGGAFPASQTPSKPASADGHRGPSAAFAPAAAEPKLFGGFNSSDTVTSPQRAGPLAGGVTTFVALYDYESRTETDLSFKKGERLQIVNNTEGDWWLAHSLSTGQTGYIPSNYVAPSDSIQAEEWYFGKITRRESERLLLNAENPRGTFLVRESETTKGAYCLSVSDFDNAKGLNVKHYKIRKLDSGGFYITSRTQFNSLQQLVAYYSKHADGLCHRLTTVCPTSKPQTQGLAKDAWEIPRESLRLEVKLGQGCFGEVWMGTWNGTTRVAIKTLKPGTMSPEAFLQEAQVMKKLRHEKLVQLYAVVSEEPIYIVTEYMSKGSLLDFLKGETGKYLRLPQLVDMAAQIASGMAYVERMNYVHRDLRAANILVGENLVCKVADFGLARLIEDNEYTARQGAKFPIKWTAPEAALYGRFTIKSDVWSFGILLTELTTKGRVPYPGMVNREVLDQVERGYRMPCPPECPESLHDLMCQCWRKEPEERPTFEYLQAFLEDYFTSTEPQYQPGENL

Compound | IC50 ([1]; 40 minutes at room temperature) | IC50 [2] | IC50 ([3]; 40 minutes at room temperature) | IC50 [3, 4] | IC50 [1, 4]
Cc1cc(Nc2cc(NC3CCOCC3)nc(-c3cccc(N(C)C)c3)n2)n[nH]1 [Compound 74, 2-(3-(dimethylamino)phenyl)-N^4-(5-methyl-1H-pyrazol-3-yl)-N^6-(tetrahydro-2H-pyran-4-yl)pyrimidine-4,6-diamine] | ≤ 100 nM | ≤ 100 nM | ≤ 100 nM |  | 
Cc1cc(Nc2cc(N3CCN(C)CC3)nc(-c3ccc4c(c3)OCCO4)n2)n[nH]1 [Example 137, 2-(2,3-dihydrobenzo[b][1,4]dioxin-6-yl)-N-(5-methyl-1H-pyrazol-3-yl)-6-(4-methylpiperazin-1-yl)pyrimidin-4-amine] | ≤ 100 nM | ≤ 100 nM | ≤ 100 nM |  | 
COc1ccc(F)c(-c2nc(Nc3cc(C)[nH]n3)cc(N3CCN(C)CC3)n2)c1 [Example 197, 2-(2-fluoro-5-methoxyphenyl)-N-(5-methyl-1H-pyrazol-3-yl)-6-(4-methylpiperazin-1-yl)pyrimidin-4-amine] | ≤ 100 nM | ≤ 100 nM | ≤ 100 nM |  | 
Cc1cc(Nc2cc(N(C)CCN(C)C)nc(-c3ccccc3)n2)n[nH]1 [Compound 9, N^4-(2-(dimethylamino)ethyl)-N^4-methyl-N^6-(5-methyl-1H-pyrazol-3-yl)-2-phenylpyrimidine-4,6-diamine] | ≤ 100 nM | ≤ 100 nM |  | ≤ 1000 nM | 
Cc1cc(Nc2cc(N3CCN(C)CC3)nc(-c3cc4ccccc4n3C)n2)n[nH]1 [Compound 2, 2-(1-methyl-1H-indol-2-yl)-N-(5-methyl-1H-pyrazol-3-yl)-6-(4-methylpiperazin-1-yl)pyrimidin-4-amine] | ≤ 100 nM | ≤ 100 nM | ≤ 100 nM |  | 
Cc1cc(Nc2cc(NCCN3CCOCC3)nc(-c3cc4ccccc4n3C)n2)n[nH]1 [Compound 5, 2-(1-methyl-1H-indol-2-yl)-N^4-(5-methyl-1H-pyrazol-3-yl)-N^6-(2-morpholinoethyl)pyrimidine-4,6-diamine] |  | ≤ 100 nM | ≤ 100 nM |  | ≤ 1000 nM
Cc1cc(Nc2cc(N3CCN(C)CC3)nc(-c3ccccc3C)n2)n[nH]1 [Compound 40, N-(5-methyl-1H-pyrazol-3-yl)-6-(4-methylpiperazin-1-yl)-2-o-tolylpyrimidin-4-amine] | ≤ 100 nM | ≤ 100 nM | ≤ 100 nM |  | 
Cc1cc(Nc2cc(NC3CCOCC3)nc(-c3cc4cc(NS(=O)(=O)C5CC5)ccc4o3)n2)n[nH]1 [Example 156, N-(2-(4-(5-methyl-1H-pyrazol-3-ylamino)-6-(tetrahydro-2H-pyran-4-ylamino)pyrimidin-2-yl)benzofuran-5-yl)cyclopropanesulfonamide] |  | ≤ 100 nM | ≤ 100 nM |  | ≤ 1000 nM
COCCN(C)c1cc(Nc2cc(C)[nH]n2)nc(-c2ccccc2)n1 [Example 171, N^4-(2-methoxyethyl)-N^4-methyl-N^6-(5-methyl-1H-pyrazol-3-yl)-2-phenyl pyrimidine-4,6-diamine] | ≤ 100 nM | ≤ 100 nM |  | ≤ 1000 nM | 
COCCN(C)c1cc(Nc2cc(C)[nH]n2)nc(-c2cc(F)ccc2F)n1 [Example 184, 2-(2,5-difluorophenyl)-N^4-(2-methoxyethyl)-N^4-methyl-N^6-(5-methyl-1H-pyrazol-3-yl)pyrimidine-4,6-diamine] | ≤ 100 nM | ≤ 100 nM |  | ≤ 1000 nM | 
Cc1cc(Nc2cc(N3CCN(C)CC3)nc(-c3cc4ccccc4o3)n2)n[nH]1 [Compound 1, 2-(benzofuran-2-yl)-N-(5-methyl-1H-pyrazol-3-yl)-6-(4-methylpiperazin-1-yl)pyrimidin-4-amine] | ≤ 100 nM | ≤ 100 nM | ≤ 100 nM |  | 
Cc1cc(Nc2cc(N3CCN(C)CC3)nc(-c3ccc(C#N)cc3)n2)n[nH]1 [Example 160, 4-(4-(5-methyl-1H-pyrazol-3-ylamino)-6-(4-methylpiperazin-1-yl)pyrimidin-2-yl)benzonitrile] |  | ≤ 100 nM | ≤ 100 nM |  | ≤ 1000 nM
CCc1ccccc1-c1nc(Nc2cc(C)[nH]n2)cc(N2CCN(C)CC2)n1 [Example 175, 2-(2-ethylphenyl)-N-(5-methyl-1H-pyrazol-3-yl)-6-(4-methylpiperazin-1-yl)pyrimidin-4-amine] | ≤ 100 nM | ≤ 100 nM |  | ≤ 1000 nM | 
Cc1cc(C)cc(-c2nc(Nc3cc(C)[nH]n3)cc(N3CCN(C)CC3)n2)c1 [Example 169, 2-(3,5-dimethylphenyl)-N-(5-methyl-1H-pyrazol-3-yl)-6-(4-methylpiperazin-1-yl)pyrimidin-4-amine] | ≤ 100 nM | ≤ 100 nM |  | ≤ 1000 nM | 
CCc1ccccc1-c1nc(Nc2cc(C)[nH]n2)cc(NC2CCOCC2)n1 [Example 174, 2-(2-ethylphenyl)-N^4-(5-methyl-1H-pyrazol-3-yl)-N^6-(tetrahydro-2H-pyran-4-yl)pyrimidine-4,6-diamine] |  | ≤ 100 nM |  | ≤ 1000 nM | ≤ 1000 nM
Cc1cc(Nc2cc(N3CCN(C)CC3)nc(-c3cccc(C(F)(F)F)c3)n2)n[nH]1 [Compound 101, N-(5-methyl-1H-pyrazol-3-yl)-6-(4-methylpiperazin-1-yl)-2-(3-(trifluoromethyl)phenyl)pyrimidin-4-amine] |  | ≤ 100 nM |  | ≤ 1000 nM | ≤ 1000 nM
Cc1cc(Nc2cc(NC3CCOCC3)nc(-c3cccc(-c4ccccc4)c3)n2)n[nH]1 [Example 159, 2-(biphenyl-3-yl)-N^4-(5-methyl-1H-pyrazol-3-yl)-N^6-(tetrahydro-2H-pyran-4-yl)pyrimidine-4,6-diamine] |  | ≤ 100 nM |  | ≤ 1000 nM | ≤ 1000 nM
Cc1cc(Nc2cc(N3CCN(C)CC3)nc(-c3ccccc3)n2)n[nH]1 [Compound 8, N-(5-methyl-1H-pyrazol-3-yl)-6-(4-methylpiperazin-1-yl)-2-phenyl pyrimidin-4-amine] | ≤ 100 nM | ≤ 100 nM | ≤ 100 nM |  | 
Cc1ccc(-c2nc(Nc3cc(C)[nH]n3)cc(N3CCN(C)CC3)n2)cc1 [Compound 38, N-(5-methyl-1H-pyrazol-3-yl)-6-(4-methylpiperazin-1-yl)-2-p-tolylpyrimidin-4-amine] | ≤ 100 nM | ≤ 100 nM | ≤ 100 nM |  | 
COc1cccc(-c2nc(Nc3cc(C)[nH]n3)cc(N3CCN(C)CC3)n2)c1 [Compound 42, 2-(3-methoxyphenyl)-N-(5-methyl-1H-pyrazol-3-yl)-6-(4-methylpiperazin-1-yl)pyrimidin-4-amine] | ≤ 100 nM | ≤ 100 nM | ≤ 100 nM |  | 
Cc1cc(Nc2cc(N3CCN(C)CC3)nc(-c3ccc4c(c3)OCO4)n2)n[nH]1 [Example 139, 2-(benzo[d][1,3]dioxol-5-yl)-N-(5-methyl-1H-pyrazol-3-yl)-6-(4-methylpiperazin-1-yl)pyrimidin-4-amine] | ≤ 100 nM | ≤ 100 nM | ≤ 100 nM |  | 
Cc1cc(Nc2cc(N3CCN(C)CC3)nc(-c3cccc(F)c3)n2)n[nH]1 [Compound 33, 2-(3-fluorophenyl)-N-(5-methyl-1H-pyrazol-3-yl)-6-(4-methylpiperazin-1-yl)pyrimidin-4-amine] | ≤ 100 nM | ≤ 100 nM | ≤ 100 nM |  | 
Cc1cc(Nc2cc(N3CCN(C)CC3)nc(-c3cccc([N+](=O)[O-])c3)n2)n[nH]1 [Example 162, N-(5-methyl-1H-pyrazol-3-yl)-6-(4-methylpiperazin-1-yl)-2-(3-nitrophenyl)pyrimidin-4-amine] | ≤ 100 nM | ≤ 100 nM | ≤ 100 nM |  | 
